Test results: article PMC5290327, “SC83288 is a clinical development candidate for the treatment of severe malaria” (Nature Communications, 2017)
≈ marks a conversion by molar mass, not a printed value.

What was measured:
[1] = test system: P. falciparum strain Thai19; test: Growth inhibition assay; format: cell-based; conditions: Plasmodium falciparum
[2] = Solubility in phosphate buffer; format: physicochemical
Protocol: SC81458 and SC83288 were soluble in water (890 and 940 μg ml^−1, respectively) and organic solvents. […] The compounds were stable in different physiological solutions, including artificial gastric juice, simulated intestinal fluid, phosphate-buffered saline and human plasma, when incubated for 6 h at 37 °C.

[3] = test system: 401 human kinases; test: Kinase competition assay, whole panel; format: binding; conditions: 10 μM
Protocol: The KINOMEscan was carried out by Ambit (San Diego, USA) according to a previously established protocol. The experiment was based on a competition binding assay that quantitatively measures the ability of a compound to compete with an immobilized, active-site directed ligand. The assay is performed by combining three components: DNA-tagged kinase; immobilized ligand; and a test compound. The ability of the test compound to compete with the immobilized ligand is measured via quantitative PCR of the DNA tag.
For most assays, kinase-tagged T7 phage strains were grown in parallel in 24-well blocks in an Escherichia coli host derived from the BL21 strain. E. coli were grown to log-phase and infected with T7 phage from a frozen stock and incubated with shaking at 32 °C until lysis (90–150 min). The lysates were centrifuged (6,000g) and filtered (0.2 μm) to remove cell debris. The remaining kinases were produced in HEK-293 cells (Sigma Aldrich, catalogue number: 85120602) and subsequently tagged with DNA for quantitative PCR detection. […] The liganded beads were blocked with excess biotin and washed with blocking buffer (SeaBlock (Pierce), 1% bovine serum albumin, 0.05% Tween 20 and 1 mM dithiothreitol) to remove unbound ligand and to reduce non-specific phage binding. […] The kinase concentration in the eluates was measured by quantitative PCR.

[4] = target: T1, hERG channel (Homo sapiens, UniProt Q12809); test: hERG profiling, whole cell patch-clamp; format: cell-based
T1 construct: expressed in transfected cells; host or cells: HEK 293
Protocol: A HEK 293 cell line (Sigma Aldrich, catalogue number: 85120602) constitutively expressing the hERG channel in the membrane was used for the assay. The cells were cultured in MEM with Earle's salts and L-glutamine (10% FCS, non-essential amino acids, 300 μg ml^−1 Geneticin (G418)) and kept at 37 °C and under 5% CO2. Cells were routinely split every 3–4 days at a 1:5–1:10 ratio. The electrophysiological measurements were performed using the whole cell patch-clamp method. Extracellular bath solution contained 137 mM NaCl, 4 mM KCl, 1 mM MgCl2, 1.8 mM CaCl2, 10 mM glucose, 10 mM HEPES (pH 7.4 with NaOH), the intracellular pipette solution 130 mM KCl, 1 mM MgCl2, 5 mM MgATP, 5 mM EGTA and 10 mM HEPES (pH 7.2 with KOH). To assess the effects of SC81458 and SC83288 on the current through the hERG channel, a 1,500 ms of conditioning voltage pulse was applied every 20 s by the holding membrane potential (−80 mV) is carried out to +40 mV followed by a 500 ms test pulse of +40 mV to −40 mV. The amplitude of the current peak induced by the test pulse was determined at equilibrium (I0) and after (Idrug) addition of the substance. After the application of the substance, the cells were rinsed with extracellular bath solution until a complete recovery of the current occurred; otherwise, the cells were replaced with new ones.

[5] = test system: Plasmodium berghei; test: Rodent malaria model; format: in vivo; conditions: P. berghei, 30 mg kg-1 i.p. 1x4 days
Protocol: This was the case for both an in vivo 4 day dosing regimen of 30 mg kg^−1 per day and an ex vivo one-cycle growth inhibition assay. […] Differential therapeutic efficacy in various rodent model systems is a well-established phenomenon and is typically associated with charged compounds, such as positively charged amidines and negatively charged phosphoric acid or carboxylic acid containing drugs. The phenomenon is explained based on selective uptake of charged compounds through parasite-induced channels, termed new permeation pathways, in the host cell plasma membrane and species-specific characteristics of the new permeation pathways.

[6] = target: T2, A2A (h) (Homo sapiens, UniProt P29274); test: Radioligand binding
T2 construct: Cerep (contract study)

[7] = target: T3, b2 (h) (Homo sapiens, UniProt P07550); format: binding
T3 construct: Cerep (contract study)

[8] = target: T4, b2 (h) (Homo sapiens, UniProt P30411); format: binding
T4 construct: Cerep (contract study)

[9] = target: T5, D1 (h) (Homo sapiens, UniProt P21728); test: Radioligand binding
T5 construct: Cerep

[10] = target: T6, CCR1 (h) (Homo sapiens, UniProt P32246); test: Radioligand binding
T6 construct: Cerep
T6 sequence (P32246 1-355): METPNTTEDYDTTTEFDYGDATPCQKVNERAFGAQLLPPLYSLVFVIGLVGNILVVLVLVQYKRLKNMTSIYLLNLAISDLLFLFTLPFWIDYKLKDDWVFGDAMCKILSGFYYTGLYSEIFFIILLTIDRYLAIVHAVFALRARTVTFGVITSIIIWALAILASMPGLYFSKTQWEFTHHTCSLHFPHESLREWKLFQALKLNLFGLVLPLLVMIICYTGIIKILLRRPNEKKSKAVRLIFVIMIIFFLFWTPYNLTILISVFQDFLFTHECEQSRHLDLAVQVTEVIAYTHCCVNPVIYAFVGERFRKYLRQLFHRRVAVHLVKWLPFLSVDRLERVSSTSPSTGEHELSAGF

[11] = target: T7, d2 (DOP) (h) (Homo sapiens, UniProt P41143); test: Radioligand binding
T7 construct: Cerep

[12] = target: T8, VPAC1 (VIP1) (h) (Homo sapiens, UniProt P32241); test: Radioligand binding
T8 construct: Cerep (contract screening)

[13] = target: T9, V1a (h) (Homo sapiens, UniProt P37288); test: Radioligand binding
T9 construct: Cerep (contract screening)

[14] = test system: human T-cells; test: Cytotoxicity; conditions: 50 μM

T1 sequence (Q12809 whole entry): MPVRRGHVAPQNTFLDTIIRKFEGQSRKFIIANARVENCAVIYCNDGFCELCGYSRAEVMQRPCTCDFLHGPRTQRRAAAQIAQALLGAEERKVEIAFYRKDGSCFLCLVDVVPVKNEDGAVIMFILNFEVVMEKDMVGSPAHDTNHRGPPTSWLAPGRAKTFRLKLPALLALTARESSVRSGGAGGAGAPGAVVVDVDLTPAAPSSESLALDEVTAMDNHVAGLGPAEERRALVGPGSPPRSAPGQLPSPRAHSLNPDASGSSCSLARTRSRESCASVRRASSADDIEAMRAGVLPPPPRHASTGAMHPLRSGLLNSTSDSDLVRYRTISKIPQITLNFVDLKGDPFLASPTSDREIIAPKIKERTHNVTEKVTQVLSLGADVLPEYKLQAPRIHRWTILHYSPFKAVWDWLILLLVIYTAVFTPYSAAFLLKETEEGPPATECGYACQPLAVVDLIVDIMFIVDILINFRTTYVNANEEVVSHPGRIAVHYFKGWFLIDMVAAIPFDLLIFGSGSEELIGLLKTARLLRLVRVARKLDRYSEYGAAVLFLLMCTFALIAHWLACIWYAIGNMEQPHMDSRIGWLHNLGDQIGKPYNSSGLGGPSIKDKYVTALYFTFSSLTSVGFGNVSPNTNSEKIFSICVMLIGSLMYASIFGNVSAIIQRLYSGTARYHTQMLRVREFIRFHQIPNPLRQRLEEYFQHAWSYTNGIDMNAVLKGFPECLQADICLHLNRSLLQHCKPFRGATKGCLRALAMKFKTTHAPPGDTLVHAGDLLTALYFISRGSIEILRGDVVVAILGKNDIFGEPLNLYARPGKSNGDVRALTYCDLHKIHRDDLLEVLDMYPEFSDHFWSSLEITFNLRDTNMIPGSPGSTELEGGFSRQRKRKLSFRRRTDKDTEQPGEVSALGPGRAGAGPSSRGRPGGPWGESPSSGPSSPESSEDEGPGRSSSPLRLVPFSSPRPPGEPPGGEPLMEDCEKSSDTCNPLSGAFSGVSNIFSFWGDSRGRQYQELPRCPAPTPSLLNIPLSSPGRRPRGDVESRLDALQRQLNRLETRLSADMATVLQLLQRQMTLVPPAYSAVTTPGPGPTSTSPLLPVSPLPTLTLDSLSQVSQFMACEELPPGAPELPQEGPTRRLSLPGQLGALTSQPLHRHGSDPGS
T5 sequence (P21728 whole entry): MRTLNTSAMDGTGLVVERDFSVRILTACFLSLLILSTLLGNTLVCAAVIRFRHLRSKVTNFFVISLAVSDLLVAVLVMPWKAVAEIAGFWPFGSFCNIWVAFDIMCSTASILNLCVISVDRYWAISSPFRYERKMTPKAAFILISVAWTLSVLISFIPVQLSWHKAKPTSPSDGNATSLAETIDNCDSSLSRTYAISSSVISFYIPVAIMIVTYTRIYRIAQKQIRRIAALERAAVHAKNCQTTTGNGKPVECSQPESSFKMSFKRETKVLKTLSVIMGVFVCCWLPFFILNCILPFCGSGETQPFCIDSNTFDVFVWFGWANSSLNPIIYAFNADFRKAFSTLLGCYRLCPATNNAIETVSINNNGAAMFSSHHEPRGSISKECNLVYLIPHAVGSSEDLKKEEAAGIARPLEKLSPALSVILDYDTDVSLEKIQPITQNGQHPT
T7 sequence (P41143 whole entry): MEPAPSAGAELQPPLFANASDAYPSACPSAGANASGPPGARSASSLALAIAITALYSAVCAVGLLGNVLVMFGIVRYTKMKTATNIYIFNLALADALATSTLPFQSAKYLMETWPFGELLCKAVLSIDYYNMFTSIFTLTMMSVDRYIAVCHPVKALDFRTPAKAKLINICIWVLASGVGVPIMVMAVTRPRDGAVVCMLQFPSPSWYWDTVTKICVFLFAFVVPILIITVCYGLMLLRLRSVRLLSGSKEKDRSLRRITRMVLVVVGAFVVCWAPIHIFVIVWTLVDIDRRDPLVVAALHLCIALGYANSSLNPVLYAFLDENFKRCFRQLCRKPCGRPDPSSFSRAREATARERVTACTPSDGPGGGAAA
T8 sequence (P32241 31-457): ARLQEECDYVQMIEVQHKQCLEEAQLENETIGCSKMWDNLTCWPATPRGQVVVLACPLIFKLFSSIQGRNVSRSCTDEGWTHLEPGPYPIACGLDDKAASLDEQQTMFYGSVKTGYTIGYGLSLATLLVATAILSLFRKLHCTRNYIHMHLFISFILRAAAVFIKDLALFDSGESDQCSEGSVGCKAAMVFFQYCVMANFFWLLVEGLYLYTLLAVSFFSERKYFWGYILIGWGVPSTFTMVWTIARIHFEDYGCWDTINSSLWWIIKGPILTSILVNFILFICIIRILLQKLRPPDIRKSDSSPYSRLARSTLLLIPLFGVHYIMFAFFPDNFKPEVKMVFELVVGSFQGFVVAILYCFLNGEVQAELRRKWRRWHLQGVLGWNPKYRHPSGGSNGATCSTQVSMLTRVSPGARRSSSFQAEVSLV
T3 sequence (P07550 whole entry): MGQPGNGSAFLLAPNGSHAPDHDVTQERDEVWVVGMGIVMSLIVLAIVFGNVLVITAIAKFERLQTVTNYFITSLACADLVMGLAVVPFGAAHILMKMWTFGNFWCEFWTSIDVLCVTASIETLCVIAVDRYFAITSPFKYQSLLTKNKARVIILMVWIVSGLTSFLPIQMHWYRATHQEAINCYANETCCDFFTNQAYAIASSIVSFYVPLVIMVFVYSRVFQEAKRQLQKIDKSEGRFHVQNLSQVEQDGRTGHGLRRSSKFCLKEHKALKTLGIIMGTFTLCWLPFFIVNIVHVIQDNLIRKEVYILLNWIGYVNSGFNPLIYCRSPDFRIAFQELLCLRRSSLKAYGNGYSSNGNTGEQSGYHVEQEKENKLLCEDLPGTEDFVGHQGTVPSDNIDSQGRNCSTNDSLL
T4 sequence (P30411 whole entry): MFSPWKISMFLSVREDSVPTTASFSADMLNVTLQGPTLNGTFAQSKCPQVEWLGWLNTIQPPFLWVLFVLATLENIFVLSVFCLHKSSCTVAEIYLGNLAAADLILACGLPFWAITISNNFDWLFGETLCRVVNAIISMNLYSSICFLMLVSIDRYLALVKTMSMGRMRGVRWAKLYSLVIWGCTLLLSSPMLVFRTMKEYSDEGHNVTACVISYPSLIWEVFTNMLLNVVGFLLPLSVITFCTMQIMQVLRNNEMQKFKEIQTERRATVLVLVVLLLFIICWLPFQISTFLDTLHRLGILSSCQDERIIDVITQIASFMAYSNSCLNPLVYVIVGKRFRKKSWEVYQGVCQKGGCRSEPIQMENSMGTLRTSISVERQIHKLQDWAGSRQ
T2 sequence (P29274 whole entry): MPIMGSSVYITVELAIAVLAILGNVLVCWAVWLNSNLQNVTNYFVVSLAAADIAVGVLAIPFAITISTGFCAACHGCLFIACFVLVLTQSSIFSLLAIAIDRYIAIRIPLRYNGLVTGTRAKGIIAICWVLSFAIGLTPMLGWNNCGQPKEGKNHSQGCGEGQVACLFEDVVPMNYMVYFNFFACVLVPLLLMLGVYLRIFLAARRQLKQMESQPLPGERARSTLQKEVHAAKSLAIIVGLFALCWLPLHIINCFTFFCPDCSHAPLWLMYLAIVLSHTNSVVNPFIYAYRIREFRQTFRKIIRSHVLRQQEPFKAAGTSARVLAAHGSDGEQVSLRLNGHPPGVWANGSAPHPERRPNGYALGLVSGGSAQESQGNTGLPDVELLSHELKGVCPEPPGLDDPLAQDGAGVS
T9 sequence (P37288 whole entry): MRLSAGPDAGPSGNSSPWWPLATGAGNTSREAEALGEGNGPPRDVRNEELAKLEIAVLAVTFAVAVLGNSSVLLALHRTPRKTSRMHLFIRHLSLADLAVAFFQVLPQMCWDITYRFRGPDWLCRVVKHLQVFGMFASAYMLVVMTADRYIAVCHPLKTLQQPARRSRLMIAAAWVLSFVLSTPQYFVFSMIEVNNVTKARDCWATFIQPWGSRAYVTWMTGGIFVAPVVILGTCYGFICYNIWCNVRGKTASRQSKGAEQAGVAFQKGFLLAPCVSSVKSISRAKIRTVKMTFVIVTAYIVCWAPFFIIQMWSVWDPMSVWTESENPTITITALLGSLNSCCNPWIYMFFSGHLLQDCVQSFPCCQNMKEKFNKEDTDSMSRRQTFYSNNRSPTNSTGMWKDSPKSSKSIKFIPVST

Compound | IC50 [1] [nM] | solubility ([2]; pH 4, aqueous buffer) [µM] | solubility ([2]; pH 9, aqueous buffer) [µM] | interference with 401 human kinases [3] | hERG activity retained ([4]; 20 μM) [%] | hERG channel remaining active ([4]; 100 μM) [%] | Outcome [5] | Inhibition of control specific binding [6] [%] | Inhibition of control specific binding [7] [%] | Inhibition of control specific binding [8] [%] | Inhibition of control specific binding [9] [%] | Inhibition of control specific binding [10] [%] | Inhibition of control specific binding [11] [%] | Inhibition of control specific binding [12] [%] | Inhibition of control specific binding [13] [%] | in vitro propagation / cytotoxicity [14] | hERG activity retained ([4]; 60 μM) [%]
COC(=O)N1CCN(C(=N)c2cccc(NC(=O)Nc3ccc(S(=O)(=O)NCc4ccc(S(N)(=O)=O)cc4)cc3)c2)CC1 [SC83288, methyl 4-(imino(3-(3-(4-(N-(4-sulfamoylbenzyl)sulfamoyl)phenyl)ureido)phenyl)methyl) piperazine-1-carboxylate] | 4 ± 1 | 2600 (≈ 1640 µg/mL) | 800 (≈ 504 µg/mL) | did not interfere | > 90 | 50 | inactive | 13 | 27 | -4 | 79 | -2 | 1 | -5 | 11 | did not affect | 
CCCCN1CCN(C(=N)c2cccc(NC(=O)Nc3ccc(S(=O)(=O)NCc4ccc(S(N)(=O)=O)cc4)cc3)c2)CC1 [SC81458, 4-(3-(3-((4-butylpiperazin-1-yl)(imino)methyl)phenyl)ureido)-N-(4-sulfamoylbenzyl) benzenesulfonamide] | 7 ± 1 | 1800 (≈ 1130 µg/mL) | 400 (≈ 251 µg/mL) | did not interfere |  |  | inactive | 5 | 6 | 7 | 51 | -13 | 10 | -4 | -1 | did not affect | > 90
